How the values were obtained:
[1] = system: fibroblasts (PHF) co-cultured with human choriocarcinoma tumor cells (AC-1M32); assay: Marker expression (IHC) in PHF co-cultured with AC-1M32 tumor cells; format: cell-based; settings: co-culture with AC-1M32; SP 1 μM + antagonist 1 μM; 48 h;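 note: Read-out is the percentage of PHF fibroblasts positive for each marker, with cells grown in fresh healthy-donor blood plasma, six replicates, reference being fibroblasts cultured alone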
[2] = system: tumor cells from primary human tumors (PI3 Kinase pathway); assay: Proliferation of primary human tumor cells (AKT modified or unchanged) alone or with stromal fibroblasts; format: cell-based; settings: antagonist 1 μM
[3] = system: tumor cells from primary human tumors (MAP Kinase pathway); assay: Proliferation of primary human tumor cells (ERK modified or unchanged) alone or with macrophages; format: cell-based; settings: antagonist 1 μM
[4] = system: tumor cells from primary human tumors (MAP Kinase pathway); assay: Proliferation of primary human tumor cells (ERK modified or unchanged) alone or with stromal fibroblasts; format: cell-based; settings: antagonist 1 μM
[5] = system: fibroblasts (PHF) co-cultured with human neuroblastoma tumor cells (KELLY); assay: Marker expression (IHC) in PHF co-cultured with KELLY tumor cells; format: cell-based; settings: PHF co-cultured with KELLY + SP + NK1 antagonist;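 note: Co-cultures grown on healthy-donor human blood plasma, run in six replicates, value is percentage of fibroblasts positive for each marker, compared with fibroblasts cultured alone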
[6] = system: fibroblasts (PHF) co-cultured with tumor cells of human endometrial carcinoma (AN3-CA); assay: Marker expression (IHC) in PHF co-cultured with AN3-CA tumor cells; format: cell-based; settings: co-culture with AN3-CA; SP 1 μM + antagonist 1 μM; 48 h;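 note: cultured in fresh healthy-donor blood plasma with added antibiotic-antimycotic, run in six replicates, values give percent of fibroblasts positive for each marker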
[7] = system: fibroblasts (PHF) co-cultivated with tumor cell lymphoblastic leukemia B (SDI); assay: Marker expression (IHC) in PHF co-cultured with SDI tumor cells; format: cell-based, human; settings: PHF co-cultivated with SDI + SP + NK1 antagonist
[8] = system: fibroblasts (PHF) co-cultured with human melanoma tumor cells (MEL-HO1); assay: Marker expression (IHC) in PHF co-cultured with MEL-HO1 tumor cells; format: cell-based; settings: PHF co-cultured with MEL-HO1 + SP + NK1 antagonist;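 note: values are the percentage of fibroblasts positive for each marker, with cultures grown in fresh healthy-donor blood plasma and each experiment run six times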
[9] = system: fibroblasts (PHF) co-cultivated with tumor cell carcinoma of urinary bladder (5637); assay: Marker expression (IHC) in PHF co-cultured with 5637 tumor cells; format: cell-based, human; settings: co-culture with 5637; SP 1 μM + antagonist 1 μM; 48 h
[10] = system: tumor cells from primary human tumors (PI3 Kinase pathway); assay: Proliferation of primary human tumor cells (AKT modified or unchanged) alone or with macrophages; format: cell-based; settings: antagonist 1 μM
[11] = system: fibroblasts (PHF) co-cultured with tumor cells, thyroid carcinoma; assay: Marker expression (IHC) in PHF co-cultured with thyroid carcinoma tumor cells; format: cell-based, human; settings: co-culture with thyroid carcinoma cells; SP 1 μM + antagonist 1 μM; 48 h;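 note: grown in fresh plasma from a healthy human donor, read-out is percent of fibroblasts positive for each marker, compared with fibroblasts cultured alone, run in six replicates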
[12] = system: fibroblasts (PHF) co-cultured with tumor cells, thyroid carcinoma (reference A-427); assay: as above; format: cell-based, human; settings: co-culture with thyroid carcinoma cells; SP 1 μM + antagonist 1 μM; 48 h
[13] = irrespective of MAP Kinases pathway integrity

Structure (SMILES): C[C@@H](O[C@H]1OCCN(Cc2n[nH]c(=O)[nH]2)[C@H]1c1ccc(F)cc1)c1cc(C(F)(F)F)cc(C(F)(F)F)c1 [Aprepitant]
- PHF cells expressing MMP-3 [1]: 0%
- PHF cells expressing MMP-7 [1]: 0%
- PHF cells expressing MMP-9 [1]: 0%
- PHF cells expressing MMP-11 [1]: 0%
- PHF cells expressing MMP-13 [1]: 0%
- PHF cells expressing MMP-14 [1]: 0%
- PHF cells expressing SPARC [1]: 0%
- PHF cells expressing TGF-α [1]: 0%
- PHF cells expressing TGF-β1 [1]: 0%
- PHF cells expressing TGF-β2 [1]: 0%
- PHF cells expressing TGF-β3 [1]: 0%
- growth of primary tumor cells cultured alone (in words) ([2]; AKT modified or unchanged): only inhibits the growth of cells in which said receptor acts through the PI3 Kinase pathway
- proliferation of primary tumor cells co-cultured with stromal fibroblasts (in words) ([2]; irrespective of PI3 kinases pathway integrity): produces a proliferation of inhibition of tumor cells
- growth of primary tumor cells cultured alone (in words) ([3]; ERK modified or unchanged): only inhibits the growth of cells in which said receptor acts through the MAP Kinases pathway
- proliferation of primary tumor cells co-cultured with macrophages (in words) [3, 13]: produces a proliferation of inhibition of tumor cells
- growth of primary tumor cells cultured alone (in words) ([4]; ERK modified or unchanged): only inhibits the growth of cells in which the receptor acts NK1 through the MAP Kinases pathway
- proliferation of primary tumor cells co-cultured with stromal fibroblasts (in words) [4, 13]: produces a proliferation of inhibition of tumor cells
- cells expressing MMP-3 [5]: 0%
- cells expressing MMP-7 [5]: 0%
- cells expressing MMP-9 [5]: 0%
- cells expressing MMP-11 [5]: 0%
- cells expressing MMP-13 [5]: 0%
- cells expressing MMP-14 [5]: 0%
- cells expressing SPARC [5]: 0%
- cells expressing TGF-α [5]: 0%
- cells expressing TGF-β1 [5]: 0%
- cells expressing TGF-β2 [5]: 0%
- cells expressing TGF-β3 [5]: 0%
- PHF cells expressing MMP-3 [6]: 0%
- PHF cells expressing MMP-7 [6]: 0%
- PHF cells expressing MMP-9 [6]: 0%
- PHF cells expressing MMP-11 [6]: 0%
- PHF cells expressing MMP-13 [6]: 0%
- PHF cells expressing MMP-14 [6]: 0%
- PHF cells expressing SPARC [6]: 0%
- PHF cells expressing TGF-α [6]: 0%
- PHF cells expressing TGF-β1 [6]: 0%
- PHF cells expressing TGF-β2 [6]: 0%
- PHF cells expressing TGF-β3 [6]: 0%
- cells expressing MMP-3 [7]: 0%
- cells expressing MMP-7 [7]: 0%
- cells expressing MMP-9 [7]: 0%
- cells expressing MMP-11 [7]: 0%
- cells expressing MMP-13 [7]: 0%
- cells expressing MMP-14 [7]: 0%
- cells expressing SPARC [7]: 0%
- cells expressing TGF-α [7]: 0%
- cells expressing TGF-β1 [7]: 0%
- cells expressing TGF-β2 [7]: 0%
- cells expressing TGF-β3 [7]: 0%
- cells expressing MMP-3 [8]: 0%
- cells expressing MMP-7 [8]: 0%
- cells expressing MMP-9 [8]: 0%
- cells expressing MMP-11 [8]: 0%
- cells expressing MMP-13 [8]: 0%
- cells expressing MMP-14 [8]: 0%
- cells expressing SPARC [8]: 0%
- cells expressing TGF-α [8]: 0%
- cells expressing TGF-β1 [8]: 0%
- cells expressing TGF-β2 [8]: 0%
- cells expressing TGF-β3 [8]: 0%
- PHF cells expressing MMP-3 [9]: 0%
- PHF cells expressing MMP-7 [9]: 0%
- PHF cells expressing MMP-9 [9]: 0%
- PHF cells expressing MMP-11 [9]: 0%
- PHF cells expressing MMP-13 [9]: 0%
- PHF cells expressing MMP-14 [9]: 0%
- PHF cells expressing SPARC [9]: 0%
- PHF cells expressing TGF-α [9]: 0%
- PHF cells expressing TGF-β1 [9]: 0%
- PHF cells expressing TGF-β2 [9]: 0%
- PHF cells expressing TGF-β3 [9]: 0%
- growth of primary tumor cells cultured alone (in words) ([10]; AKT modified or unchanged): only inhibits the growth of cells in which said receptor acts through the PI3 Kinase pathway
- proliferation of primary tumor cells co-cultured with macrophages (in words) ([10]; irrespective of PI3 Kinase pathway integrity): produces a proliferation of inhibition of tumor cells
- PHF cells expressing MMP-11 [11]: 0%
- PHF cells expressing MMP-3 [12]: 0%
- PHF cells expressing MMP-7 [12]: 0%
- PHF cells expressing MMP-9 [12]: 0%
- PHF cells expressing MMP-13 [12]: 0%
- PHF cells expressing MMP-14 [12]: 0%
- PHF cells expressing SPARC [12]: 0%
- PHF cells expressing TGF-α [12]: 0%
- PHF cells expressing TGF-β1 [12]: 0%
- PHF cells expressing TGF-β2 [12]: 0%
- PHF cells expressing TGF-β3 [12]: 0%

From patent US20180071317A1, “USE OF AGENTS THAT ALTER THE PERITUMORAL ENVIRONMENT FOR THE TREATMENT OF CANCER” (SERVICIO ANDALUZ DE SALUD, priority 2011, published 2018)
